Reference: patent publication US20220251079A1, “BENZO[B][1,8]NAPHTHYRIDINE ACETIC ACID DERIVATIVES AND METHODS OF USE” (STINGTHERA, INC., priority 2019, published 2022)

Tests used:
hSTING-R232 = molecular target: T1, hSTING-R232 (Homo sapiens, UniProt Q86WV6, H232R); test: STING Differential Scanning Fluorimetry (DSF) assay, human; assay type: binding; settings: human STING R232-WT, 5 μM protein
T1 construct: recombinant mouse or human STING protein (aa140-379); 6xHis-SUMO elsewhere) (cleaved yes); made in house
Experimental: A STING DSF assay was performed to determine protein thermostability shift in response to small molecule ligand binding. A STING thermostability shift assay based on differential scanning fluorimetry was used to measure (1) the net shift in melting temperature (ΔTm)between the apo and ligand-bound states of the STING protein and (2) the concentration of the thermal denaturation transition (FC50) as a surrogate measure of binding affinity (Kd). Briefly, recombinant mouse or human STING protein (aa140-379) comprising the C-terminal binding domain (R232-WT) were purified by affinity chromatography and further processed to remove the purification tag, followed by gel filtration to achieve purity >95%. Protein in assay buffer was transferred to a 384 well plate and incubated with the hydrophobic fluorescent dye SYBR Orange. A temperature ramp was applied to the plate and the resulting dye fluorescence was plotted as a function of temperature. The first derivative of this function (dF/dT) was then used to extrapolate the melting temperature of the protein at various concentrations of compound and determine the thermal denaturation profile of a protein/compound complex.
2. 5 μM purified Target STING Protein
4. Buffer: 100 mM NaCl, 30 mM HEPES, pH 7.5
5. Thermal Ramp: 0.5° C./min
7. 11 point, 2 fold dilution, duplicate, 300 μM high concentrations

[1] = molecular target: T2, human STING protein (140-379) (Homo sapiens, UniProt Q86WV6, H232R); test: Radiometric filtration binding competition assay (WT_FBA_HIS-SUMO-hSWAT); settings: read-out: WT-hSWAT IC50
T2 construct: 6XHIS-SUMO-hSTING (140-379); made in house; host or cells: BL-21(DE3) E. coli, pET vector
Experimental: A radiometric filtration binding competition assay was performed to quantify the binding affinity of compounds of the present application for the human or mouse STING protein, or associated HAQ human isoform. The competition format filtration binding assay detects the ability of small molecule compounds from binding to and inhibiting the subsequent binding of a tritiated [H3] […] The resulting dose response was fit by non-linear regression to determine an IC50 value, from which a Ki value for each compound was extrapolated.
Briefly, the recombinant C-terminal ligand binding domain of the human STING protein (140-379) or mouse STING protein (139-328) [0.5 μM] was incubated in the presence of a compound of the present application (8 point, 2 fold dilution starting at 300 μM) for 30 min or under control conditions. […] The resulting complexes were then filtered, dried, and scintillation fluid was added and the remaining radio signal was measured to determine the degree of compound ligand inhibition. This assay format was optimized for both the WT and HAQ isoforms of the human protein and the mouse orthologue protein.
Parameters optimized: • a. Form of protein: 6×HIS-SUMO tag or untagged • b. Concentration of target protein: Minimum concentration that achieved >80 max signal • c. Assay DMSO concentration: 10%-0.1% • d. Assay Buffer: Base (Tris or phosphate), Salt concentration, +/−Tween (0.1-2%) • e. […] Probe Concentration: Minimum concentration that achieved max assay window • g. Assay Format: Scintillation Proximity Bead or Filtration Binding Plate • h. Assay Plate: 384 vs 96 well format • i. Assay incubation times for successive incubation steps
WT-hSWAT: WT_FBA_HIS-SUMO-hSWAT IC50 (μM) (“WT”=Wild-type); and WT-mSWAT: MOUSE_FBA_HIS-SUMO-mSWAT C50 (μM) which is the mouse isoform of STING protein.

STING protein = molecular target: T3, STING protein (Homo sapiens, UniProt Q86WV6, H232R); test: Cell based reporter assay of IRF activation (THP1-dual-KI R232, IRF luciferase); settings: THP-1; read-out: THP1-dual-KI R232_IRF(Luciferase)_Activity Maximum measured (%)
T3 construct: host or cells: THP-1 dual reporter cells, TMEM173 modified from HAQ to R232 (THP1-dual-KI R232)
From the text: Cell reporter assays were developed to measure the ability of compounds of the application to activate the STING protein and activate both IRF/IFN and the NFkB signaling pathways in the myeloid derived cell line THP-1, which is commercially available from several suppliers. Briefly, THP-1 monocytes were transfected and selected for stable integration of 2 reporter constructs. Clones incorporating stably integrated vectors were further selected by antibiotic resistance to blastocidin and zeocin. The reporter constructs included: (1) firefly luciferase reporter gene under the control of an ISG54 promoter fused to five interferon (IFN)-stimulated response elements to measure IRF transcription factor binding activity and (2) secreted embryonic alkaline phosphatase reporter gene under transcription control of an IFN-beta minimal promoter fused to 5 copies of the NFkB consensus transcriptional response element and 3 copies of the c-Rel binding site.
The resulting THP-1 cell line was further modified to incorporate 3 amino acid point mutations (H71R A230G Q293R). This modification of the native TMEM173 gene in THP-1 cells (HAQ) was designed to produce a cell reporter that expressed the most common allelic variant in the human population (THP-1 R232, available from InvivoGen). Alternatively, the TMEM173 gene was knocked out to provide a congenic control to counter-screen for compound activation that was independent of the STING protein (THP-1 STING KO).
Once cell lines were established, reporter assay protocols were developed and optimized to screen small molecule compounds for agonist activity. Assay optimization for efficacy and Z′ value included titration of the following parameters:
1. No pre-activation with PMA
2. […]cells/well in 96 well plate format
7. Cell Titer Glo reagent (Promega) following supermatant removal
9. 8 point, 2 fold, duplicate starting at 150 μM PP28T

T1 sequence (Q86WV6 140-379 H232R): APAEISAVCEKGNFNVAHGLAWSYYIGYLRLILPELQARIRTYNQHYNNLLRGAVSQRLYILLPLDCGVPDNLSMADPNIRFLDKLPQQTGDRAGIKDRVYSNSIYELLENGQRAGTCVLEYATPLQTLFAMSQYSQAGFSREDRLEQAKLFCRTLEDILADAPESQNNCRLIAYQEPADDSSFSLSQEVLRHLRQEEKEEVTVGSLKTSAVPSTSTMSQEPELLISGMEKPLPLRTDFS
T2 sequence (Q86WV6 140-379 H232R): as above
T3 sequence (Q86WV6 whole entry H232R): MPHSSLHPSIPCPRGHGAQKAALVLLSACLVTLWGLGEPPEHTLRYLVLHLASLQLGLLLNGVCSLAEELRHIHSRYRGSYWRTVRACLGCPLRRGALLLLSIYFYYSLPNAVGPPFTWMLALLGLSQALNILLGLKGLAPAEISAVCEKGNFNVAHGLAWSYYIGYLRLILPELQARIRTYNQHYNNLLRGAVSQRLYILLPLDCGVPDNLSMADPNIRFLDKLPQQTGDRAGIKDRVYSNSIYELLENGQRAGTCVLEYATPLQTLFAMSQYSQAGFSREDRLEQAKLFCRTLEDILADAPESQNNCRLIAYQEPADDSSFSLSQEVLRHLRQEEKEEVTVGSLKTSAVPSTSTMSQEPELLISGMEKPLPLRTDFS

| WT_DSF_hSWAT Tm Shift (° C.) (hSTING-R232) | IC50 [1] [µM] | Emax (STING protein) [%] | SMILES |
| --- | --- | --- | --- |
| D (“D” > 7° C.) | < 20 | > 50 | CO[C@H]1C[C@H](N(C)c2ccc3c(=O)c4ccc(Cl)c(SC)c4n(CC(=O)O)c3n2)C1 (single isomer, unassigned) [Compound 70, 2-(8-chloro-2-(((1r,3r)-3-methoxycyclobutyl)(methyl)amino)-9-(methylthio)-5-oxobenzo[b][1,8]naphthyridin-10(5H)-yl)acetic acid] |
| D (“D” > 7° C.) | 100 to 300 | > 50 | COc1c(Cl)ccc2c(=O)c3ccc(C(C)C)nc3n(CC(=O)O)c12 [Compound 1] |
| D (“D” > 7° C.) | < 20 | > 50 | CN(C)c1c(Cl)ccc2c(=O)c3ccc(Nc4ccccc4)nc3n(CC(=O)O)c12 [Compound 6] |
| C (“C” = 2-7° C.) | 100 to 300 | > 50 | Cc1ccc2c(=O)c3c(O)cc(Cl)c(N(C)C)c3n(CC(=O)O)c2n1 [Compound 9] |
| D (“D” > 7° C.) | 20 to 100 | > 50 | CN(C)c1ccc2c(=O)c3ccc(Cl)c(N(C)C)c3n(CC(=O)O)c2n1 [Compound 19, sodium 2-(8-chloro-2,9-bis(dimethylamino)-5-oxobenzo[b][1,8]naphthyridin-10(5H)-yl)acetate] |
| C (“C” = 2-7° C.) | 20 to 100 | > 50 | COc1ccc2c(=O)c3ccc(Cl)c(N(C)C)c3n(CC(=O)O)c2n1 [Compound 21, 2-(8-chloro-9-(dimethylamino)-2-methoxy-5-oxobenzo[b][1,8]naphthyridin-10(5H)-yl) acetic acid] |
| D (“D” > 7° C.) | 20 to 100 | > 50 | CSc1c(Cl)ccc2c(=O)c3ccc(N(C)C)nc3n(CC(=O)O)c12 [Compound 22, sodium 2-(8-chloro-2-(dimethylamino)-9-(methylthio)-5-oxobenzo[b][1,8]naphthyridin-10(5H)-yl)acetate] |

More lines, now with the values behind:

| SMILES | WT_DSF_hSWAT Tm Shift (° C.) (hSTING-R232) | IC50 [1] [µM] | Emax (STING protein) [%] |
| --- | --- | --- | --- |
| CO[C@H]1C[C@@H](N(C)c2ccc3c(=O)c4ccc(Cl)c(SC)c4n(CC(=O)O)c3n2)C1 (single isomer, unassigned) [Compound 44, 2-(8-chloro-2-(((1s,3s)-3-methoxycyclobutyl) (methyl)amino)-9-(methylthio)-5-oxobenzo[b][1,8]naphthyridin-10(5H)-yl)acetic acid] | D (“D” > 7° C.) | 20 to 100 | > 50 |
| Cc1ccc2c(=O)c3ccc(Cl)c(N(C)C)c3n(CC(=O)O)c2n1 [Compound 4] | D (“D” > 7° C.) | 20 to 100 | > 50 |
| CN(C)c1c(Cl)ccc2c(=O)c3ccc(C(C)(C)C)nc3n(CC(=O)O)c12 [Compound 5, [2-tert-butyl-8-chloro-9-(dimethylamino)-5-oxobenzo[b]1,8-naphthyridin-10-yl]acetic acid] | D (“D” > 7° C.) | < 20 | > 50 |
| CC(C)c1ccc2c(=O)c3ccc(Cl)c(N(C)C)c3n(CC(=O)O)c2n1 [Compound 7] | D (“D” > 7° C.) | < 20 | > 50 |
| CCc1ccc2c(=O)c3ccc(Cl)c(N(C)C)c3n(CC(=O)O)c2n1 [Compound 8] | D (“D” > 7° C.) | < 20 | > 50 |
| Cc1ccc2c(=O)c3ccc(Cl)c(N(C)C)c3n(CC(=O)NS(C)(=O)=O)c2n1 [Compound 10] | C (“C” = 2-7° C.) | > 300 | > 50 |
| Cc1ccc2c(=O)c3ccc(Cl)c(N(C)C)c3n(CC(=O)NC#N)c2n1 [Compound 11] | B (“B” = 0-2° C.) | > 300 | < 5 |
| CSc1c(Cl)ccc2c(=O)c3ccc(C(C)(C)C)nc3n(CC(=O)O)c12 [Compound 12] | D (“D” > 7° C.) | < 20 | > 50 |
| CSc1ccc2c(=O)c3ccc(C(C)(C)C)nc3n(CC(=O)O)c2c1SC [Compound 13] | B (“B” = 0-2° C.) | > 300 | > 50 |
| CC(C)(C)c1ccc2c(=O)c3ccc(Cl)c(F)c3n(CC(=O)O)c2n1 [Compound 14] | B (“B” = 0-2° C.) | > 300 | > 50 |
| CCc1nc2c(cc1Cl)c(=O)c1ccc(Cl)c(N(C)C)c1n2CC(=O)O [Compound 17, 2-(3,8-dichloro-9-(dimethylamino)-2-ethyl-5-oxobenzo[b][1,8]naphthyridin-10(5H)-yl)acetic acid] | C (“C” = 2-7° C.) | 20 to 100 | > 50 |
| CCOc1nc2c(cc1Cl)c(=O)c1ccc(Cl)c(N(C)C)c1n2CC(=O)O [Compound 18, 2-(3,8-dichloro-9-(dimethylamino)-2-ethoxy-5-oxobenzo[b][1,8]naphthyridin-10(5H)-yl) acetic acid] | C (“C” = 2-7° C.) | < 20 | > 50 |
| CN(C)c1c(Cl)ccc2c(=O)c3ccc(C(C)(C)C(N)=O)nc3n(CC(=O)O)c12 [Compound 20, 2-(2-(1-amino-2-methyl-1-oxopropan-2-yl)-8-chloro-9-(dimethylamino)-5-oxobenzo[b][1,8]naphthyridin-10(5H)-yl)acetic acid] | C (“C” = 2-7° C.) | 100 to 300 | > 50 |
| CCOc1c(Cl)ccc2c(=O)c3ccc(N(C)C)nc3n(CC(=O)O)c12 [Compound 23, sodium 2-(8-chloro-2-(dimethylamino)-9-ethoxy-5-oxobenzo[b][1,8]naphthyridin-10(5H)-yl)acetate] | C (“C” = 2-7° C.) | 100 to 300 | > 50 |
| CO[C@H]1C[C@H](N(C)c2ccc3c(=O)c4ccc(C)c(N(C)C)c4n(CC(=O)O)c3n2)C1 [Compound 66, 2-(9-(dimethylamino)-2-(((1r,3r)-3-methoxycyclobutyl)(methyl)amino)-8-methyl-5-oxobenzo[b][1,8]naphthyridin-10(5H)-yl)acetic acid] | C (“C” = 2-7° C.) | 100 to 300 |  |
| CSc1c(Cl)ccc2c(=O)c3cc(Cl)c(N(C)CC4CCOCC4)nc3n(CC(=O)O)c12 [Compound 76, sodium 2-(3,8-dichloro-2-(methyl((tetrahydro-2H-pyran-4-yl)methyl)amino)-9-(methylthio)-5-oxobenzo[b][1,8]naphthyridin-10(5H)-yl)acetate] | D (“D” > 7° C.) | < 20 |  |
